Assay results: article PMC8041284, “Tunable Methacrylamides for Covalent Ligand Directed Release Chemistry” (Journal of the American Chemical Society, 2021)
Read-outs that look alike come from different tables or passages of the source.

Biological target: BTK (Homo sapiens, UniProt Q06187)
Assay: biochemical
[1] = read-out: BTK inhibition (%), 0.75 uM BTK, […] probe 3l, 15 min preincubation

BTK, sequence (Q06187 402-655 limits assumed): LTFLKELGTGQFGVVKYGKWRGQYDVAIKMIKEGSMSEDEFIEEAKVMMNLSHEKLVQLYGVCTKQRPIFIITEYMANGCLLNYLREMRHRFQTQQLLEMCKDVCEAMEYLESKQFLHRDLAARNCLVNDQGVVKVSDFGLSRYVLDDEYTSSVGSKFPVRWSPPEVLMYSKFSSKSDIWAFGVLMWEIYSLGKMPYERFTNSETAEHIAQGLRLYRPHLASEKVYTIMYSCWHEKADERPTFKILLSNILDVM

Structure (SMILES)	inhibition at 10 µM [1] [%]	inhibition at 10 µM (read-out: BTK inhibition (%)) [%]
CO[C@]1(CC[C@@H](C)CO[C@@H]2O[C@H](CO)[C@@H](O)[C@H](O)[C@H]2O)O[C@H]2C[C@H]3[C@@H]4CC=C5C[C@@H](O[C@@H]6O[C@H](CO)[C@@H](O[C@@H]7O[C@@H](C)[C@H](O)[C@@H](O)[C@H]7O)[C@H](O)[C@H]6O[C@@H]6O[C@@H](C)[C@H](O)[C@@H](O)[C@H]6O)CC[C@]5(C)[C@H]4CC[C@]3(C)[C@H]2[C@@H]1C [PCM-0216533]	-6.2	
COC(=O)C1=CO[C@@H](O[C@@H]2O[C@H](CO)[C@@H](O)[C@H](O)[C@H]2O)[C@H]2[C@@H]1C(=O)C[C@@H]2C [PCM-0216534]	6.9	
C[C@@H]1CC[C@@]2(OC1)O[C@H]1C[C@H]3[C@@H]4CC=C5C[C@@H](O[C@@H]6O[C@H](CO)[C@@H](O)[C@H](O)[C@H]6O[C@@H]6O[C@@H](C)[C@H](O)[C@@H](O)[C@H]6O)CC[C@]5(C)[C@H]4CC[C@]3(C)[C@@]1(O)[C@@H]2C [PCM-0216535]	5.4	
C[C@H]1O[C@@H](O[C@H]2CC[C@@]3(C)[C@@H](CC[C@]4(C)[C@@H]3C=CC3=C5CC(C)(C)CC[C@]5(CO)[C@H](O)C[C@]34C)[C@]2(C)CO)[C@H](O)[C@@H](O[C@@H]2O[C@H](CO)[C@@H](O)[C@H](O)[C@H]2O)[C@H]1O [PCM-0216536]	5.4	
CC(=O)O[C@@H]1C[C@H](O)[C@@]23CO[C@@H](O)[C@]1(C)[C@@H]2C[C@@H](O)[C@]1(C)[C@@H]3C(=O)[C@H](OC(C)=O)[C@@]2(C)[C@H](c3ccoc3)C[C@H]3O[C@]321 [PCM-0216537]	-15.4	
C=C[C@H]1CN2CC[C@]3(C(=O)Nc4ccccc43)[C@@H]2C[C@@H]1/C(=C\OC)C(=O)OC [PCM-0216538]	6.2	
C[C@@H]1O[C@@H](O[C@H]2[C@H](O[C@H]3CC[C@@]4(C)[C@@H](CC[C@]5(C)[C@@H]4CC=C4[C@@H]6CC(C)(C)CC[C@]6(C(=O)O)CC[C@]45C)[C@]3(C)CO)OC[C@H](O[C@@H]3O[C@H](CO)[C@@H](O)[C@H](O)[C@H]3O)[C@@H]2O)[C@H](O)[C@H](O)[C@H]1O [PCM-0216539]	52.5	
C=C1C(=O)O[C@H]2[C@H]1CCC(C)=C1CC[C@@](C)(O)[C@@H]12 [PCM-0216540]	23.9	
CC(C)=C1C/C=C(\C)CC/C=C(\C)CC1=O [PCM-0216542]	-4.6	
OC[C@H]1O[C@@H](Oc2cc3c(O)cc(O)cc3[o+]c2-c2ccc(O)c(O)c2)[C@H](O)[C@@H](O)[C@@H]1O [PCM-0216543]	23.9	
C=C1CCC[C@]2(C)C[C@]3(O)OC(=O)C(C)=C3C[C@@H]12 [PCM-0216544]	6.9	
C=C1CCC[C@]2(C)C[C@@H]3OC(=O)C(C)=C3C[C@@H]12 [PCM-0216545]	-38.6	
CC(C)=CCC[C@@](C)(O)[C@H]1CC[C@]2(C)[C@@H]1[C@H](O)C[C@@H]1[C@@]3(C)CC[C@H](O)C(C)(C)[C@@H]3[C@@H](O[C@@H]3O[C@H](CO)[C@@H](O)[C@H](O)[C@H]3O)C[C@]12C [PCM-0216547]	12.4	
COc1ccc(-c2cc(=O)c3c(O)cc(O[C@@H]4O[C@H](CO)[C@@H](O)[C@H](O)[C@H]4O[C@@H]4O[C@@H](C)[C@H](O)[C@@H](O)[C@H]4O)cc3o2)cc1O [PCM-0216549]	1.5	
O=C(/C=C/C=C/c1ccccc1)CCc1ccccc1 [PCM-0216550]	4.6	
C[Si](C)(C)CCOCn1ccc2c(-c3cn[nH]c3)ncnc21 [PCM-0216552]	-40.9	
COC(=O)CCC(=O)CN [PCM-0216554]	-7.7	
Cc1nccn1CCC(C(N)=O)(c1ccccc1)c1ccccc1 [PCM-0216555]	1.5	
O=C(O)c1cc(O)cc(Cl)c1 [PCM-0216556]	-10	
CC1=NCC[C@@H](C(=O)O)N1 [PCM-0216558]	-13.6	

Structure (SMILES)	inhibition at 10 µM [1] [%]	inhibition at 10 µM (read-out: BTK inhibition (%)) [%]
Cn1nnc(-c2ccc(-c3ccc(N4C[C@H](CO)OC4=O)cc3F)cn2)n1 [PCM-0216559]	-12.4	
O=C(O)CCCCCCCCCO [PCM-0216560]		14.7
CC(C)CCC[C@@H](C)[C@H]1CC[C@H]2C3=CC=C4C[C@@H](O)CC[C@]4(C)[C@H]3CC[C@]12C [PCM-0216561]	18.5	
O=c1ccoc2cc(O)ccc12 [PCM-0216563]	-2.8	
Cc1ccc(O)c(O)c1 [PCM-0216565]	6.2	
C[C@H]1CN(C[C@H](Cc2ccccc2)C(=O)NCC(=O)O)CC[C@@]1(C)c1cccc(O)c1 [PCM-0216566]	-13.1	
COc1cc2c(cc1OC)[C@H]1C[C@@H](OC(=O)[C@@H](N)C(C)C)[C@H](CC(C)C)CN1CC2 [PCM-0216567]	-27	
CO[C@H]1/C=C/O[C@@]2(C)Oc3c(C)c(O)c4c(O)c(cc(O)c4c3C2=O)NC(=O)/C(C)=C\C=C\[C@H](C)[C@H](O)[C@@H](C)[C@@H](O)[C@@H](C)[C@H](OC(C)=O)[C@@H]1C [PCM-0216568]	22.4	
CCOC(=O)C1=C(C)NC(C)=C(C(=O)OCC)C1 [PCM-0216569]	10.8	
CC1(C)CC[C@]2(C)CC[C@]3(C)C(=CC[C@@H]4[C@@]5(C)CC[C@@H](O)[C@](C)(C(=O)O)[C@@H]5CC[C@]43C)[C@@H]2C1 [PCM-0216570]	-6.9	
CCOC(=O)/C=C/c1ccc(O)c(O)c1 [PCM-0216571]	17.8	
C[C@@H]1CC[C@]2(C(=O)O[C@@H]3O[C@H](CO)[C@@H](O)[C@H](O)[C@H]3O)CC[C@]3(C)C(=CC[C@@H]4[C@@]5(C)CC[C@H](O)[C@@](C)(CO)[C@@H]5CC[C@]43C)[C@@H]2[C@]1(C)O [PCM-0216572]	-2.3	
Cc1ccc2c(c1)[C@]13CCCC[C@@H]1[C@H](C2)N(C)CC3 [PCM-0216574]		12.8
CC(C)=CCC/C(C)=C/CC/C(C)=C/CCC(=O)OC/C=C(\C)CCC=C(C)C [PCM-0216575]	7.7	
C[C@H](O)[C@H](O)c1cnc2nc(N)[nH]c(=O)c2n1 [PCM-0216576]	6.8	
CCCCC[C@](C)(O)/C=C/[C@@H]1[C@@H](C/C=C\CCCC(=O)O)[C@@H](O)C[C@H]1O [PCM-0216577]	-3.9	
CCCCc1ccc(O)cc1O [PCM-0216578]	-8.5	
CC(C)=CCOc1ccc(/C=C/C(=O)c2ccc(OCC=C(C)C)cc2OCC(=O)O)cc1 [PCM-0216579]	16.2	
OCC1(O)OC[C@@H](O)[C@H](O)[C@@H]1O (stereo partly shown) [PCM-0216581]	6.9	
COc1ccc(/C=C/C(=O)c2c(O)cc(OC)cc2OC)cc1 [PCM-0216582]	11.6	

Structure (SMILES)	inhibition at 10 µM [1] [%]	inhibition at 10 µM (read-out: BTK inhibition (%)) [%]
CN(C)c1ccc2nc3c(C(=O)O)cc(=O)c(O)c-3oc2c1 [PCM-0216583]	88	
Nc1[nH]c(=O)ncc1Br [PCM-0216584]	8.5	
Nc1ccc(Oc2ccc(-c3ccc(Oc4ccc(N)cc4)cc3)cc2)cc1 [PCM-0216586]	-7.7	
NC(=O)Cc1c[nH]c2ccccc12 [PCM-0216587]	3.1	
CC(=O)OC(CC(=O)O)C[N+](C)(C)C (stereo not shown) [PCM-0216588]	-18.5	
CCCCCCCCCCCCCC(=O)O [PCM-0216589]	1.7	
CC(OC(=O)OC1CCCCC1)OC(=O)C1=C(CSc2nnnn2CCN(C)C)CS[C@@H]2[C@H](NC(=O)Cc3csc(N)n3)C(=O)N12 (stereo partly shown) [PCM-0216590]	4.6	
CO/N=C(\C(=O)N[C@@H]1C(=O)N2C(C(=O)[O-])=C(C[n+]3ccn4ncccc43)CS[C@H]12)c1nsc(N)n1 [PCM-0216591]	10.8	
CCN(CC)c1ccc2c(-c3ccccc3C(=O)O)c3ccc(=[N+](CC)CC)cc-3oc2c1 [PCM-0216592]	85.7	
CC[C@@H]1CN2CC[C@@]3(C(=O)Nc4ccccc43)[C@@H]2C[C@@H]1/C(=C\OC)C(=O)OC [PCM-0216594]	-15.4	
CCC(C)C(=O)O[C@@H]1[C@@H](OC(C)=O)[C@]2(C)[C@H](C(C)=O)CC[C@@]23O[C@]32CC[C@H]3C[C@@H](O[C@H]4C[C@@H](OC)[C@H](O[C@@H]5O[C@H](C)[C@@H](O)[C@@H](OC)[C@H]5O)[C@@H](C)O4)CC[C@]3(C)[C@@H]12 (stereo partly shown) [PCM-0216595]	-11.6	
C[C@H]1[C@H](C)CC[C@]2(C(=O)O)CC[C@]3(C)C(=CC[C@@H]4[C@@]5(C)C[C@@H](O)[C@H](O)C(C)(C)[C@@H]5CC[C@]43C)[C@H]12 [PCM-0216596]	6.2	
O=C1C(c2[nH]c3ccc(S(=O)(=O)O)cc3c2O)=Nc2ccc(S(=O)(=O)O)cc21 [PCM-0216597]	23.9	
CC(=O)O[C@@H]1CC[C@@]2(C)[C@@H](CC[C@]3(C)[C@@H]2C(=O)C=C2[C@@H]4[C@@H](C)[C@H](C)CC[C@]4(C)CC[C@]23C)[C@@]1(C)C(=O)O [PCM-0216599]	88	
CO[C@H]1[C@@H](O)[C@H](O[C@@H]2[C@@H](C)O[C@@H](O[C@H]3CC[C@@]4(C)[C@@H](CC[C@@]56O[C@@]57CC[C@@H](C(C)=O)[C@@]7(C)[C@H](OC(C)=O)[C@@H](OC(=O)c5ccccc5)[C@H]46)C3)C[C@H]2OC)O[C@H](C)[C@H]1O [PCM-0216600]	-12.4	
O=c1cc(-c2ccc(O)cc2)oc2cc(O)c([C@@H]3O[C@H](CO)[C@@H](O)[C@H](O)[C@H]3O)c(O)c12 [PCM-0216601]	11.6	
COc1cc(O)c2c(c1)oc(=O)c1c3cc(O)c(O)cc3oc21 [PCM-0216602]	47.9	
CC1=C[C@@H]2C(=O)[C@]3(C=C(C)[C@H](O)[C@@]3(O)[C@@H]1O)[C@H](C)C[C@@H]1[C@H]2C1(C)C [PCM-0216603]		3.9
